Target: human APJ receptor (Homo sapiens (Human), UniProt P35414)
Assay: biochemical
Assay type: biochemical
Conditions: [35S]GTPγS binding, CHO membranes expressing human APJ receptor; read-out: Activity hAPJ SPA EC50 IP
Procedure, shortened: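 GTPγS binding on membranes from CHO cells stably expressing FLAG-tagged human APJ, with optimized GDP, MgCl2 and NaCl; incubated 90 min at RT before imaging read-out.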

Sequence of human APJ receptor (P35414 whole entry): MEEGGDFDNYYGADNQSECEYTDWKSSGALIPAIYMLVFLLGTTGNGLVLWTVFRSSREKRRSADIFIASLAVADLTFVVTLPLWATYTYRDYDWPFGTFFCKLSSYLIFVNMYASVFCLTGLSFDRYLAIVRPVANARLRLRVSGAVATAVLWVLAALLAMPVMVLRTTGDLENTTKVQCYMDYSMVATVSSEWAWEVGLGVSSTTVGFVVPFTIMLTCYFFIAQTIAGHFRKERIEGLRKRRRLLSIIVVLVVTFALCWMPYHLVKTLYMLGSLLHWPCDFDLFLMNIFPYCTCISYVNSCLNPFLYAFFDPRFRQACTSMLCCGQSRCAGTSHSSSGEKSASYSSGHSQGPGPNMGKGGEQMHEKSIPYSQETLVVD

Going from `COc1cccc(OC)c1-n1c(NS(=O)(=O)[C@@H](C)[C@H](OC)c2ncc(C)cn2)nnc1-c1ncn(C)n1` [Example 204.0, (1R,2S)-N-(4′-(2,6-dimethoxyphenyl)-1-methyl-1H,4′H-3,3′-bi-1,2,4-triazol-5′-yl)-1-methoxy-1-(5-methyl-2-pyrimidinyl)-2-propanesulfonamide] to `COc1cccc(OC)c1-n1c(NS(=O)(=O)CCc2ccc(Cl)cc2)nnc1-c1cccs1` [Example 311.0, 2-(4-Chlorophenyl)-N-(4-(2,6-dimethoxyphenyl)-5-(thiophen-2-yl)-4H-1,2,4-triazol-3-yl)ethanesulfonamide], the EC50 falls from 52 nM to 3.8 nM (14-fold).

Going from `COc1cccc(OC)c1-n1c(NS(=O)(=O)[C@@H](C)[C@H](OC)c2ncc(C)cn2)nnc1-c1cnc2[nH]ccc2n1` [Example 206.0] to `COc1cccc(OC)c1-n1c(NS(=O)(=O)[C@@H](C)[C@H](OC)c2ncc(C)cn2)nnc1-c1noc2ccc(Br)cc12` [Example 414.0], the EC50 rises from 96 nM to 210 nM (2.2-fold).

`CO[C@H](c1ncc(Cl)cn1)[C@H](C)S(=O)(=O)Nc1nnc(-c2cnn3ccccc23)n1C1CC1` [Example 507.0, (1R,2S)-1-(5-chloropyrimidin-2-yl)-N-(4-cyclopropyl-5-(pyrazolo[1,5-a]pyridin-3-yl)-4H-1,2,4-triazol-3-yl)-1-methoxypropane-2-sulfonamide] and `COc1cccc(OC)c1-n1c(NS(=O)(=O)C(C)Cc2ncc(F)cn2)nnc1-c1cc(C)no1` (stereo in doubt) [Example 57.0, (R)-N-(4-(2,6-dimethoxyphenyl)-5-(3-methylisoxazol-5-yl)-4H-1,2,4-triazol-3-yl)-1-(5-fluoropyrimidin-2-yl)propane-2-sulfonamide and (R)-N-(4-(2,6-dimethoxyphenyl)-5-(3-methylisoxazol-5-yl)-4H-1,2,4-triazol-3-yl)-1-(5-fluoropyrimidin-2-yl)propane-2-sulfonamide] are within 1.5-fold of each other in EC50: 38 nM for the first, 42 nM for the second.

Compared with `COc1cccc(OC)c1-n1c(NS(=O)(=O)CCc2ccc(F)cc2C#N)nnc1-c1nc(C2CC2)cs1` [Example 155.0, 2-(2-cyano-4-fluorophenyl)-N-(5-(4-cyclopropylthiazol-2-yl)-4-(2,6-dimethoxyphenyl)-4H-1,2,4-triazol-3-yl)ethanesulfonamide], `COc1cccc(OC)c1-n1c(NS(=O)(=O)[C@@H](C)[C@H](OC)c2ncc(C)cn2)nnc1-c1csc(C)n1` [Example 338.0, (1R,2S)-N-(4-(2,6-dimethoxyphenyl)-5-(2-methyl-1,3-thiazol-4-yl)-4H-1,2,4-triazol-3-yl)-1-methoxy-1-(5-methyl-2-pyrimidinyl)-2-propanesulfonamide] is 29-fold lower in EC50: 10 nM for the first, 0.34 nM for the second. The second is the more potent here.

First: COCC(COC)n1c(NS(=O)(=O)[C@@H](C)[C@H](C)c2ncc(Cl)cn2)nnc1-c1nn(C)c2ccccc12 [Example 449.0, (2S,3R)-3-(5-chloropyrimidin-2-yl)-N-(4-(1,3-dimethoxypropan-2-yl)-5-(1-methyl-1H-indazol-3-yl)-4H-1,2,4-triazol-3-yl)butane-2-sulfonamide]
Second: CNC(=O)n1ccc(-c2nnc(NS(=O)(=O)[C@@H](C)Cc3ncc(F)cn3)n2-c2c(OC)cccc2OC)n1 (single isomer, unassigned) [Example 74.0]
The EC50 of the first is 1.7-fold lower: 13 nM for the first, 22 nM for the second. The first is the more potent here.

First: COc1cccc(OC)c1-n1c(NS(=O)(=O)C[C@H](OC)c2ccc(Cl)cc2S(C)(=O)=O)nnc1-c1ccn(C)n1 (single isomer, unassigned) [Example 381.0, (R)-2-(4-Chloro-2-(methylsulfonyl)phenyl)-N-(4-(2,6-dimethoxyphenyl)-5-(1-methyl-1H-pyrazol-3-yl)-4H-1,2,4-triazol-3-yl)-2-methoxyethanesulfonamide or (S)-2-(4-chloro-2-(methylsulfonyl)phenyl)-N-(4-(2,6-dimethoxyphenyl)-5-(1-methyl-1H-pyrazol-3-yl)-4H-1,2,4-triazol-3-yl)-2-methoxyethanesulfonamide]
Second: COc1cnc([C@@H](OC)[C@H](C)S(=O)(=O)Nc2nnc(-c3ccn(C)n3)n2-c2c(OC)cccc2OC)cn1 (single isomer, unassigned) [Example 308.0, (1R,2S)-N-(4-(2,6-dimethoxyphenyl)-5-(1-methyl-1H-pyrazol-3-yl)-4H-1,2,4-triazol-3-yl)-1-methoxy-1-(5-methoxy-2-pyrazinyl)-2-propanesulfonamide or (1S,2R)-N-(4-(2,6-dimethoxyphenyl)-5-(1-methyl-1H-pyrazol-3-yl)-4H-1,2,4-triazol-3-yl)-1-methoxy-1-(5-methoxy-2-pyrazinyl)-2-propanesulfonamide]
The EC50 of the first is 2-fold lower: 0.29 nM for the first, 0.58 nM for the second. The first is the more potent here.

Going from `COc1ncnc(OC)c1-n1c(NS(=O)(=O)[C@@H](C)[C@H](C)c2ncc(C)cn2)nnc1-c1n[nH]c2ccccc12` [Example 427.0, (2S,3R)-N-(4-(4,6-dimethoxypyrimidin-5-yl)-5-(1H-indazol-3-yl)-4H-1,2,4-triazol-3-yl)-3-(5-methylpyrimidin-2-yl)butane-2-sulfonamide] to `COc1ccc2[nH]c(-c3nnc(NS(=O)(=O)[C@@H](C)[C@H](OC)c4ncc(C)cn4)n3-c3c(OC)cccc3OC)cc2c1` [Example 336.0, (1R,2S)-N-(4-(2,6-dimethoxyphenyl)-5-(5-methoxy-1H-indo1-2-yl)-4H-1,2,4-triazol-3-yl)-1-methoxy-1-(5-methyl-2-pyrimidinyl)-2-propanesulfonamide], the EC50 rises from 21 nM to 310 nM (15-fold).

First: COc1cccc(OC)c1-n1c(NS(=O)(=O)[C@@H](C)[C@H](O)c2ncc(C)cn2)nnc1-c1ccn(C(F)F)n1 [Example 218.0, (1R,2S)-N-(5-(1-(difluoromethyl)-1H-pyrazol-3-yl)-4-(2,6-dimethoxyphenyl)-4H-1,2,4-triazol-3-yl)-1-hydroxy-1-(5-methyl-2-pyrimidinyl)-2-propanesulfonamide]
Second: COc1cccc(OC)c1-n1c(NS(=O)(=O)[C@@H](C)[C@H](C)c2ncc(Cl)cn2)nnc1-c1noc2c1CCCC2 [Example 441.0, (2S,3R)-3-(5-chloropyrimidin-2-yl)-N-(4-(2,6-dimethoxyphenyl)-5-(4,5,6,7-tetrahydrobenzo[d]isoxazol-3-yl)-4H-1,2,4-triazol-3-yl)butane-2-sulfonamide]
The EC50 of the first is 2.6-fold higher: 0.87 nM for the first, 0.33 nM for the second.

First: COc1cccc(OC)c1-n1c(NS(=O)(=O)[C@@H]2C[C@H](O)CN(c3ncc(F)cn3)C2)nnc1-c1nc(C)cs1 (single isomer, unassigned) [Example 254.0, (3R,5S)-N-(4-(2,6-dimethoxyphenyl)-5-(4-methyl-1,3-thiazol-2-yl)-4H-1,2,4-triazol-3-yl)-1-(5-fluoro-2-pyrimidinyl)-5-hydroxy-3-piperidinesulfonamide or (3S,5R)-N-(4-(2,6-dimethoxyphenyl)-5-(4-methyl-1,3-thiazol-2-yl)-4H-1,2,4-triazol-3-yl)-1-(5-fluoro-2-pyrimidinyl)-5-hydroxy-3-piperidinesulfonamide]
Second: COc1cccc(OC)c1-n1c(NS(=O)(=O)[C@H]2CCCNC2)nnc1-c1ccn(C)n1 (mixture of isomers) [Example 263.0, (3R)-N-(4-(2,6-dimethoxyphenyl)-5-(1-methyl-1H-pyrazol-3-yl)-4H-1,2,4-triazol-3-yl)-3-piperidinesulfonamide and (3S)-N-(4-(2,6-dimethoxyphenyl)-5-(1-methyl-1H-pyrazol-3-yl)-4H-1,2,4-triazol-3-yl)-3-piperidinesulfonamide]
The EC50 of the first is 150-fold lower: 1.2 nM for the first, 180 nM for the second.

First: COCC1(n2c(NS(=O)(=O)[C@@H](C)[C@H](OC)c3ncc(Cl)cn3)nnc2-c2noc3ccccc23)CC1 [Example 505.0, (1R,2S)-N-(5-(1,2-benzoxazol-3-yl)-4-(1-(methoxymethyl)cyclopropyl)-4H-1,2,4-triazol-3-yl)-1-(5-chloro-2-pyrimidinyl)-1-methoxy-2-propanesulfonamide]
Second: COc1cccc(OC)c1-n1c(NS(=O)(=O)C[C@H](OC)c2ccc(F)cc2S(C)(=O)=O)nnc1-c1ccn(C)n1 (single isomer, unassigned) [Example 372.0, (R)-N-(4-(2,6-Dimethoxyphenyl)-5-(1-methyl-1H-pyrazol-3-yl)-4H-1,2,4-triazol-3-yl)-2-(4-fluoro-2-(methylsulfonyl)phenyl)-2-methoxyethanesulfonamide or (S)-N-(4-(2,6-dimethoxyphenyl)-5-(1-methyl-1H-pyrazol-3-yl)-4H-1,2,4-triazol-3-yl)-2-(4-fluoro-2-(methylsulfonyl)phenyl)-2-methoxyethanesulfonamide]
The EC50 of the first is 6.1-fold higher: 8.5 nM for the first, 1.4 nM for the second. The second is the more potent here.

Going from `COc1cccc(OC)c1-n1c(NS(=O)(=O)[C@H](C)Cc2ncc(F)cn2)nnc1-c1ncccn1` (single isomer, unassigned) [Example 58.0, (R)-N-(4-(2,6-dimethoxyphenyl)-5-(pyrimidin-2-yl)-4H-1,2,4-triazol-3-yl)-1-(5-fluoropyrimidin-2-yl)propane-2-sulfonamide or (S)-N-(4-(2,6-dimethoxyphenyl)-5-(pyrimidin-2-yl)-4H-1,2,4-triazol-3-yl)-1-(5-fluoropyrimidin-2-yl)propane-2-sulfonamide] to `COc1cccc(OC)c1-n1c(NS(=O)(=O)CCc2ccc(F)cc2C#N)nnc1-c1csc(C)n1` [Example 148.0, 2-(2-cyano-4-fluorophenyl)-N-(4-(2,6-dimethoxyphenyl)-5-(2-methylthiazol-4-yl)-4H-1,2,4-triazol-3-yl)ethanesulfonamide], the EC50 rises from 17 nM to 31 nM (1.8-fold).

Compared with `COc1cccc(OC)c1-n1c(NS(=O)(=O)[C@@H](C)[C@H](OC)c2ncc(C)cn2)nnc1-c1noc2ccccc12` [Example 87.0, (1R,2S)-N-(5-(benzo[d]isoxazol-3-yl)-4-(2,6-dimethoxyphenyl)-4H-1,2,4-triazol-3-yl)-1-methoxy-1-(5-methylpyrimidin-2-yl)propane-2-sulfonamide], “(1R,2S)-N-(4-(2,6-dimethoxyphenyl)-5-(1H-pyrro1o[2,3-b]pyridin-3-yl)-4H-1,2,4-triazol-3-yl)-1-methoxy-1-(5-methylpyrimidin-2-yl)propane-2-sulfonamide [Example 413.0]” is 2.7-fold lower in EC50: 82 nM for the first, 30 nM for the second. The second is the more potent here.

For `COc1cccc(OC)c1-n1c(NS(=O)(=O)[C@H](C)[C@@H](C)c2ncc(F)cn2)nnc1-c1nc(C)cs1` (single isomer, unassigned) [Example 121.0], the EC50 was 12 nM.
